Test results reported in patent US4876247A, “Methlenediphosphonic acid derivatives, and antirheumatic pharmaceutical composition in which they are present and methods of using same” (Sanofi, priority 1984, dated 1989).

Test system: adjuvant arthritis
Experiment: "In vivo" study: adjuvant arthritis (Mycobacterium tuberculosis) in rats, weight of the right rear paw
Parameters: species or system male Sprague-Dawley rats
Conditions: oral, 0.16 mmol/kg/day, 6 days/week for 3 weeks, versus untreated arthritic control rats
Experimental: "IN VIVO" STUDY: ADJUVANT ARTHRITIS
The injection of rats with mycobacterium causes a polyarthritis and in certain respects resembles human rheumatoid arthritis.
A suspension of Mycobacterium tuberculosis (0.4 mg) in paraffin oil (0.05 ml) is injected intradermally into the tail of male Sprague-Dawley rats having a mean weight of 150 g.
These rats are divided into 2 groups of 14 animals.
The animals of the 1st group are treated 6 days/week for 3 weeks;
either subcutaneously with doses ranging from 0.32 μmol to 32 μmol/kg/day,
or orally with a dose of 0.16 mmol/kg/day. The second group receives placebo and serves as the control group.
After 3 weeks of treatment, half the animals in each group are sacrificed; the other half are kept for 2 weeks without treatment and then sacrificed in turn.
After the animals have been sacrificed, the right rear paw is removed at the tribiotarsal joint and then weighed. The mean and the standard error of the weights are determined for each half-group.
The activity of the product is expresed as the percentage variation in the mean weight of the paws of the treated arthritic rats relative to that of the arthritic paws of the untreated rats (control rats).
For each of the products tested, the therapeutic activity is expressed as the percentage inhibition of the weight of the paw after 3 weeks of treatment. […]

For `Cc1ccc(SCC(N)(P(=O)(O)O)P(=O)(O)O)cc1` [42 710 A], the “% Inhibition of the weight of the paw 2 weeks after the end of the treatment” value (then 2 weeks without treatment) was 7% and the “% Inhibition of the weight of the paw at the end of the treatment (3 weeks)” value was 19%.
